In test [1] the test system is HINF 30063. The test is described as follows: In vitro MIC by standard agar dilution method, HINF 30063. In kind it is cell-based, H. influenzae. The conditions noted are these: Haemophilus influenzae, read-out: HINF 30063 MIC (Minimum Inhibitory Concentration). An excerpt:
(§1) The oxazolidinone antibacterial agents of this invention have useful activity against a variety of organisms. The in vitro activity of compounds of this invention can be assessed by standard testing procedures such as the determination of minimum inhibitory concentration (MIC) by agar dilution as described in “Approved Standard. Methods for Dilution Antimicrobial Susceptibility Tests for Bacteria That Grow Aerobically”, 3rd. ed., published 1993 by the National Committee for Clinical Laboratory Standards, Villanova, Pa., USA.
(§2) The in vitro MICs of test compounds were determined by a standard agar dilution method. A stock drug solution of each analog was prepared in the preferred solvent, usually DMSO: H2O (1:3). Serial 2-fold dilutions of each sample are made using 1.0 ml aliquots of sterile distilled water. To each 1.0 ml aliquot of drug was added 9 ml of molten Mueller Hinton agar medium. The drug-supplemented agar was mixed, poured into 15×100 mm petri dishes, and allowed to solidify and dry prior to inoculation.
(§3) Vials of each of the test organisms are maintained frozen in the vapor phase of a liquid nitrogen freezer. Test cultures are grown overnight at 35° C. on the medium appropriate for the organism. Colonies are harvested with a sterile swab, and cell suspensions are prepared in Trypticase Soy broth (TSB) to equal the turbidity of a 0.5 McFarland standard. A 1:20 dilution of each suspension was made in TSB. The plates containing the drug supplemented agar are inoculated with a 0.001 ml drop of the cell suspension using a Steers replicator, yielding approximately 10^4 to 10^5 cells per spot. The plates are incubated overnight at 35° C.
(§4) Following incubation the Minimum Inhibitory Concentration (MIC μg/ml), the lowest concentration of drug that inhibits visible growth of the organism, was read and recorded.
Background: In agar dilution, organisms are placed on agar that contains the substance at set levels.

Test [2] has as its system SAUR 9213. Description: In vitro MIC by standard agar dilution method, SAUR 9213. Format: cell-based, S. aureus. The conditions noted are these: Staphylococcus aureus, read-out: SAUR 9213 MIC (Minimum Inhibitory Concentration).
Source text: as §1, §2, §3, §4

Test [3] deals with SPNE 9912. The test is described as follows: In vitro MIC by standard agar dilution method, SPNE 9912. Format: cell-based. The conditions noted are these: read-out: SPNE 9912 MIC (Minimum Inhibitory Concentration).
Source text: as §1, §2, §3, §4

The mark [4] stands for this setting: agar dilution, Mueller Hinton agar, incubated overnight at 35° C., lowest concentration that inhibits visible growth.

≈ marks a conversion by molar mass, not a printed value. Like-named read-outs stand apart in the source and are kept apart here.

Consider `C#CCCCC(=O)N1CCN(c2ccc(N3C[C@H](CNC(C)=O)OC3=O)cc2F)CC1` [Compound 4, N-({(5S)-3-[3-Fluoro-4-(4-hex-5-ynoylpiperazin-1-yl)phenyl]-2-oxo-1,3-oxazolidin-5-yl}methyl)acetamide], for which the figures for the MIC in test [1], in test [2] and in test [3] were 64 µg/mL (≈ 149 µM), 4 µg/mL (≈ 9.29 µM) and 1 µg/mL (≈ 2.32 µM), respectively.

With `CC(=O)NC[C@H]1CN(c2ccc(N3CCN(C(=O)CCCC#Cc4cccc(CN)c4)CC3)c(F)c2)C(=O)O1` [Compound 6, N-({(5S)-3-[4-(4-{6-[3-(aminomethyl)phenyl]hex-5-ynoyl}piperazin-1-yl)-3-fluorophen-yl]-2-oxo-1,3-oxazolidin-5-yl}methyl)acetamide], the MIC in test [1] (setting [4]) was found to be 16 µg/mL (≈ 29.9 µM); in test [2] (setting [4]), 2 µg/mL (≈ 3.73 µM); in test [3] (setting [4]) it was 1 µg/mL (≈ 1.87 µM).

Take `CC(=O)NC[C@H]1CN(c2ccc(N3CCN(C(=O)CCCC#Cc4ccc(O)cc4)CC3)c(F)c2)C(=O)O1` [Compound 7, N-{[(5S)-3-(3-Fluoro-4-{4-[6-(4-hydroxyphenyl)hex-5-ynoyl]piperazin-1-yl}phenyl)-2-oxo-1,3-oxazolidin-5-yl]methyl}acetamide]: the values for the MIC in test [1] (setting [4]), in test [2] (setting [4]) and in test [3] (setting [4]) were above 64 µg/mL, 4 µg/mL (≈ 7.65 µM) and 1 µg/mL (≈ 1.91 µM), respectively.

Regarding `C#CCCC(=O)N1CCN(c2ccc(N3C[C@H](CNC(C)=O)OC3=O)cc2F)CC1` [Compound 8, N-[((5S)-3-{3-fluoro-4-[4-(4-pentynoyl)-1-piperazinyl]phenyl}-2-oxo-1,3-oxazolidin-5-yl)methyl]acetamide], the MIC in test [1] (setting [4]) is above 32 µg/mL; in test [2] (setting [4]), 4 µg/mL (≈ 9.6 µM); in test [3] (setting [4]), below 0.5 µg/mL.

`CC(=O)NC[C@H]1CN(c2ccc(N3CCN(CC#Cc4ccccc4)CC3)c(F)c2)C(=O)O1` [Compound 9, N-[((5S)-3-{3-fluoro-4-[4-(3-phenylprop-2-ynyl)piperazin-1-yl]phenyl}-2-oxo-1,3-oxazolidin-5-yl)methyl]acetamide]: the MIC in test [1] (setting [4]) is 16 µg/mL (≈ 35.5 µM); in test [2] (setting [4]), 4 µg/mL (≈ 8.88 µM); in test [3] (setting [4]) it was 2 µg/mL (≈ 4.44 µM).

`CC(=O)NC[C@H]1CN(c2cc(F)c(N3CCN(C(=O)CCCC#Cc4ccc(CN)cc4)CC3)c(F)c2F)C(=O)O1` [Compound 10, N-({(5S)-3-[4-(4-{6-[4-(aminomethyl)phenyl]hex-5-ynoyl}piperazin-1-yl)-2,3,5-trifluorophenyl]-2-oxo-1,3-oxazolidin-5-yl}methyl)acetamide]: the MIC is 32 µg/mL (≈ 56 µM) in test [1] (setting [4]), 4 µg/mL (≈ 7 µM) in test [2] (setting [4]) and 2 µg/mL (≈ 3.5 µM) in test [3] (setting [4]).

Turning to `CC(=O)NC[C@H]1CN(c2cc(F)c(N3CCN(C(=O)CCCC#Cc4cccc(CN)c4)CC3)c(F)c2F)C(=O)O1` [Compound 11, N-({(5S)-3-[4-(4-{6-[3-(aminomethyl)phenyl]hex-5-ynoyl}piperazin-1-yl)-2,3,5-trifluorophenyl]-2-oxo-1,3-oxazolidin-5-yl}methyl)acetamide], the MIC in test [1] (setting [4]) was 16 µg/mL (≈ 28 µM); in test [2] (setting [4]), 4 µg/mL (≈ 7 µM); in test [3] (setting [4]), 2 µg/mL (≈ 3.5 µM).

For the compound `CC(=O)NC[C@H]1CN(c2ccc(N3CCN(C(=O)CCCC#Cc4ccc(/C(N)=N/O)cc4)CC3)c(F)c2)C(=O)O1.Cl` [Compound 12, N-[((5S)-3-{4-[4-(6-{4-[(Z)-amino(hydroxyimino)methyl]-phenyl}hex-5-ynoyl)piperazin-1-yl]-3-fluorophenyl}-2-oxo-1,3-oxazolidin-5-yl)methyl]-acetamide hydrochloride], the MIC in test [1] (setting [4]) is above 64 µg/mL; in test [2] (setting [4]) it was 16 µg/mL; in test [3] (setting [4]) it was 2 µg/mL.

In the case of `CC(=O)NC[C@H]1CN(c2ccc(N3CCN(C(=O)CCC#Cc4ccc(C[C@H](N)C(=O)O)cc4)CC3)c(F)c2)C(=O)O1` [Compound 13, 4-{5-[4-(4-{(5S)-5-[(acetylamino)methyl]-2-oxo-1,3-oxazolidin-3-yl}-2-fluorophenyl)piperazin-1-yl]-5-oxopent-1-ynyl}-L-phenylalanine], the MIC in test [1] was above 64 µg/mL; in test [2], above 64 µg/mL; in test [3], 64 µg/mL (≈ 110 µM).

Source of the values: patent US20040204463A1, “N-aryl-2-oxazolidinone-5-carboxamides and their derivatives” (priority 2003, published 2004).
